Reference: article PMC8428568, “Discovery of re-purposed drugs that slow SARS-CoV-2 replication in human cells” (PLoS Pathogens, 2021)
Counter-ions that a name gives are not always drawn. Like-named read-outs stand apart in the source and are kept apart here.

Legend:
[1] = tested on: SARS-CoV-2-ΔOrf7a-NLuc virus; test: microbe, parasite or virus in culture; type: cell-based; conditions: for IC50: Severe acute respiratory syndrome coronavirus 2, Huh-7, read-out: HUH7 IC50
[2] = tested on: SARS-CoV-2-ΔOrf7a-NLuc virus; test: Post-infection treatment: Vero cells infected 24 hrs with SARS-CoV-2-ΔOrf7a-NLuc, then compound for 48 hrs, bioluminescence; type: cell-based; conditions: change in replication relative to DMSO; cells infected 24 hrs, then treated 48 hrs
[3] = tested on: SARS-CoV-2-ΔOrf7a-NLuc virus; test: microbe, parasite or virus in culture; type: cell-based; conditions: for activity at 10 µM: Severe acute respiratory syndrome coronavirus 2, Vero, 72 h, read-out: Mean relative luminescence (n=4); for IC50: Severe acute respiratory syndrome coronavirus 2, Vero cells; for Mean relative luminescence (n=4): Vero screen
recombinant NLuc = type: biochemical
[4] = HUH7 screen, […], relative luminescence
[5] = […], 1 = untreated, 0 = total inhibition
[6] = recombinant NLuc activity relative to DMSO
[7] = recombinant NLuc, first read column
[8] = recombinant NLuc, fourth read column
[9] = recombinant NLuc, third read column
[10] = Vero cells, 10 μM, 1 = DMSO-treated infected cells

Structure (SMILES): CCN(CC)Cc1cc(Nc2ccnc3cc(Cl)ccc23)ccc1O [Amodiaquine, Amodiaquine dihydrochloride dihydrate]
- Mean relative luminescence (n=4) [1, 4]: 0.01258
- IC50 [1]: 1 µM
- PrestoBlue relative viability (HUH7 cells; HUH7 screen): 0.7783
- Post-infection at IC50 [2]: -25%
- % activity in Vero 100PFU screen [3]: 12%
- activity at 10 µM [3, 5]: 10.1%
- IC50 [3]: 5 µM
- Mean relative luminescence (n=4) ([3]; […]): 0.1007
- Relative Recombinant NLUC (recombinant NLuc; [6]): 0.9146
- Reads Counts per second (read 1) (recombinant NLuc; [7]): 351271 Counts per second
- Reads Counts per second (read 4) (recombinant NLuc; [8]): 339282 Counts per second
- Reads Counts per second (read 2) (recombinant NLuc; recombinant NLuc): 347518 Counts per second
- Reads Counts per second (read 3) (recombinant NLuc; [9]): 344113 Counts per second
- PrestoBlue relative viability (Vero cells; [10]): 0.6404
- PrestoBlue relative viability (Vero cells; Vero screen): 0.6404

Structure (SMILES): O=C1C(O)=C([C@H]2CC[C@H](c3ccc(Cl)cc3)CC2)C(=O)c2ccccc21 [Atovaquone]
- Mean relative luminescence (n=4) [1, 4]: 0.05824
- IC50 [1]: 7.5 µM
- PrestoBlue relative viability (HUH7 cells; HUH7 screen): 1.15
- Post-infection at IC50 [2]: -25%
- % activity in Vero 100PFU screen [3]: 4%
- activity at 10 µM [3, 5]: 0.959%
- IC50 [3]: 3 µM
- Mean relative luminescence (n=4) ([3]; […]): 0.009591
- Relative Recombinant NLUC (recombinant NLuc; [6]): 0.5902
- Reads Counts per second (read 1) (recombinant NLuc; [7]): 224278 Counts per second
- Reads Counts per second (read 4) (recombinant NLuc; [8]): 216287 Counts per second
- Reads Counts per second (read 2) (recombinant NLuc; recombinant NLuc): 226697 Counts per second
- Reads Counts per second (read 3) (recombinant NLuc; [9]): 224646 Counts per second
- PrestoBlue relative viability (Vero cells; [10]): 1.55
- PrestoBlue relative viability (Vero cells; Vero screen): 1.55

Structure (SMILES): COc1nc2ccc(Br)cc2cc1[C@@H](c1ccccc1)[C@@](O)(CCN(C)C)c1cccc2ccccc12 [Bedaquiline]
- IC50 [1]: 5 µM
- Post-infection at IC50 [2]: -30%
- % activity in Vero 100PFU screen [3]: 3.54%
- activity at 10 µM [3, 5]: 1.02%
- IC50 [3]: 10 µM
- Relative Recombinant NLUC (recombinant NLuc; [6]): 0.9285
- Reads Counts per second (read 1) (recombinant NLuc; [7]): 348601 Counts per second
- Reads Counts per second (read 4) (recombinant NLuc; [8]): 351646 Counts per second
- Reads Counts per second (read 2) (recombinant NLuc; recombinant NLuc): 355872 Counts per second
- Reads Counts per second (read 3) (recombinant NLuc; [9]): 347079 Counts per second
- PrestoBlue relative viability (Vero cells; [10]): 0.8784

Structure (SMILES): O=C(c1ccc(OCCN2CCCCC2)cc1)c1c(-c2ccc(O)cc2)sc2cc(O)ccc12 [Raloxifene HCl]
- Mean relative luminescence (n=4) [1, 4]: 0.03646
- PrestoBlue relative viability (HUH7 cells; HUH7 screen): 0.5413
- % activity in Vero 100PFU screen [3]: 6%
- activity at 10 µM [3, 5]: 2.63%
- Mean relative luminescence (n=4) ([3]; […]): 0.02628
- Relative Recombinant NLUC (recombinant NLuc; [6]): 0.8812
- Reads Counts per second (read 1) (recombinant NLuc; [7]): 334037 Counts per second
- Reads Counts per second (read 4) (recombinant NLuc; [8]): 335545 Counts per second
- Reads Counts per second (read 3) (recombinant NLuc; [9]): 331016 Counts per second
- PrestoBlue relative viability (Vero cells; [10]): 0.579
- PrestoBlue relative viability (Vero cells; Vero screen): 0.579

Structure (SMILES): Clc1ccc(C(Cn2ccnc2)OCc2ccsc2Cl)c(Cl)c1 (stereo not shown) [Tioconazole]
- Mean relative luminescence (n=4) [1]: 0.1247
- PrestoBlue relative viability (HUH7 cells; human): 1.129
- % activity in Vero 100PFU screen [3]: 10%
- activity at 10 µM [3]: 7.16%
- Reads Counts per second (read 1) (recombinant NLuc): 349867 Counts per second
- Reads Counts per second (read 3) (recombinant NLuc): 345556 Counts per second
- Reads Counts per second (read 4) (recombinant NLuc): 349383 Counts per second
- Relative Recombinant NLUC (recombinant NLuc): 0.9221
- PrestoBlue relative viability (Vero cells; African green monkey): 1.172
